Patent US20090325986A1, “Deazapurine Analogs of 1'-Aza-L-Nucleosides” (priority 2005, published 2009)

Tests used:
Assay in all cases: biochemical
plasmodial PNPase = plasmodial PNPase (Plasmodium falciparum, UniProt Q8I3X4)
Text: (§1) The inhibition constants KI are the dissociation constants for the enzyme-inhibitor complex measured from initial reaction rates. For many, but not all, immucillin inhibitors, a slow-onset of inhibition then occurs consequent upon a time dependent conformational change in the enzyme that leads to tighter binding characterised by the constant KI* (J. F. Morrison and C. T. Walsh, Adv, Enzymol. Relat. Areas Mol. Biol., 1988, 61, 201-310).

bovine PNPase = bovine PNPase (Bos taurus, UniProt P55859); conditions: for Ki: B. taurus PNPase
Text: as §1

human PNPase = human PNPase (Homo sapiens, UniProt P00491); conditions: for Ki: H. sapiens PNPase
Text: as §1

[1] = Ki, Plasmodium falciparum PNPase, dissociation constant of enzyme-inhibitor complex from initial reaction rates
[2] = Ki*, tighter binding after slow-onset inhibition
[3] = Ki, dissociation constant of enzyme-inhibitor complex from initial reaction rates

Chain of plasmodial PNPase (Q8I3X4 whole entry): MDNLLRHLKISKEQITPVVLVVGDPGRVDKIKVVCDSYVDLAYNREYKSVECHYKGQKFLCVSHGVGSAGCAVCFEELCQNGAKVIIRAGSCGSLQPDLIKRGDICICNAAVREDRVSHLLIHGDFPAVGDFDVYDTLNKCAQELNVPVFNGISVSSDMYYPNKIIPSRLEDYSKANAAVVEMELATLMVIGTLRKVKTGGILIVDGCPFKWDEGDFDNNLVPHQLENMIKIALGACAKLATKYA
Chain of bovine PNPase (P55859 whole entry): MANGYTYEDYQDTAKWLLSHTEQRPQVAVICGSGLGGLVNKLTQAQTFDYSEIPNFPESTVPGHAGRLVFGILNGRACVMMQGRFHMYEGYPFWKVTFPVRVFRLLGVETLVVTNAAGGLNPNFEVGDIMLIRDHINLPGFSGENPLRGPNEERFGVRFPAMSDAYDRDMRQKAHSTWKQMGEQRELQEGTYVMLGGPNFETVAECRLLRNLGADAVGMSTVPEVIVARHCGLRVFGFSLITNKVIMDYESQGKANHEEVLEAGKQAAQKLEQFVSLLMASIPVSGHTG
Chain of human PNPase (P00491 whole entry): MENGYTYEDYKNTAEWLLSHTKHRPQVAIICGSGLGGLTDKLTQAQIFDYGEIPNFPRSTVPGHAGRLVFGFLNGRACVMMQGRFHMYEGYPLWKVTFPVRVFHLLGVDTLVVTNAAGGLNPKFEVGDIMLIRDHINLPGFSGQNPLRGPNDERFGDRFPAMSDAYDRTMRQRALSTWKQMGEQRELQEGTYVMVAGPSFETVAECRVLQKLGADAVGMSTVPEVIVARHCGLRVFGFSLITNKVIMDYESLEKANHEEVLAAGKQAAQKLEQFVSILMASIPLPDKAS

Row | Ki (plasmodial PNPase; Ki*, Plasmodium falciparum PNPase, tighter binding after slow-onset inhibition) | type of inhibition (plasmodial PNPase; Plasmodium falciparum PNP) | Ki (human PNPase; [2]) | Ki (human PNPase; [3]) | type of inhibition (human PNPase; human PNP) | type of inhibition (bovine PNPase; bovine PNP) | SMILES | Ki (plasmodial PNPase; [1]) | Ki* (plasmodial PNPase; Plasmodium falciparum PNPase, tighter binding after slow-onset inhibition) | Ki (bovine PNPase; [2]) | Ki (bovine PNPase; [3])
1 |  |  |  |  |  |  | O=c1[nH]cnc2c(CN3C[C@H](CO)[C@@H](O)C3)c[nH]c12 [[(+)-10], reference compound] | 0.5 ± 0.04 nM | Not observed | 0.11 ± 0.014 nM | 2.1 ± 0.3 nM
2 | 80 ± 7 nM | slow onset tight binding inhibitor | 0.68 ± 0.26 nM | 1.5 ± 0.1 nM | slow onset tight binding inhibitor | slow onset tight binding inhibitor | O=c1[nH]cnc2c(CN3C[C@@H](CO)[C@H](O)C3)c[nH]c12 [[(−)-10], (3S,4S)-1-[(9-Deazahypoxanthin-9-yl)methyl]-4-(hydroxymethyl)pyrrolidin-3-ol] | 1700 ± 300 nM |  | 0.5 ± 0.1 nM | 19 ± 5 nM
